In PMC8698932 (2021):

Experiments:
[1] = system: GG1 (DNA, G4) GGGCGGGCGCGAGGGAGGGT; assay: CD melting, 261 nm; conditions: 5 mM KCl; 10 mM KH2PO4 pH 7; 2 µM DNA, 8 µM compound
[2] = system: nmyc01m (DNA, i motif) ACCCCCTGCATCTTTTTGCCCCCTCCCACCCCCT; assay: fluorescence titration (alkaloid quenching); conditions: 5 mM KCl; acetate 10 mM pH 5; overall constant of the 1:5 DNA:ligand model, not per site; non-specific binding possible
[3] = system: nmyc01m (DNA, i motif) ACCCCCTGCATCTTTTTGCCCCCTCCCACCCCCT; assay: 1H NMR titration (imino protons); conditions: Na+ (sodium phosphate); pH 5.0, 25 °C; no change in imino resonances
[4] = system: nmyc01 (DNA, i motif) ACCCCCTGCATCTGCATGCCCCCTCCCACCCCCT; assay: 1H NMR titration (imino protons); conditions: Na+ (sodium phosphate); pH 5.0, 25 °C; hairpin Watson-Crick signals disappear at R = 0.25
[5] = system: 22nt (DNA, i motif) CCCTAACCCTAACCCTAACCCT; assay: 1H NMR titration (imino protons); conditions: Na+ (sodium phosphate); pH 5.0, 25 °C; only small insignificant imino changes
[6] = system: DL40 (DNA, G4) GGTTTTGGCAGGGTTTTGGT; assay: CD melting, 291 nm; conditions: 5 mM KCl; 10 mM KH2PO4 pH 7; 2 µM DNA, 8 µM compound
[7] = system: GG1 (DNA, G4) GGGCGGGCGCGAGGGAGGGT; assay: fluorescence titration (alkaloid quenching); conditions: 5 mM KCl; phosphate 10 mM pH 7; overall constant of the 1:5 DNA:ligand model, not per site; non-specific binding possible
[8] = system: nmyc01m (DNA, i motif) ACCCCCTGCATCTTTTTGCCCCCTCCCACCCCCT; assay: CD melting, 287 nm; conditions: Na+ (0.2 M CH3COONa); acetate pH 5; 2 µM DNA, 8 µM compound
[9] = system: ckit21T12T21 (DNA, G4) CGGGCGGGCGCTAGGGAGGGT; assay: 1H NMR titration (imino and aromatic protons); conditions: 20 mM KCl; 5 mM KH2PO4 pH 6.9, 25 °C; stacks over external tetrads
[10] = system: DL40 (DNA, G4) GGTTTTGGCAGGGTTTTGGT; assay: fluorescence titration (alkaloid quenching); conditions: 5 mM KCl; phosphate 10 mM pH 7; overall constant of the 1:4 DNA:ligand model, not per site; non-specific binding possible
[11] = system: DL40 (DNA, G4) GGTTTTGGCAGGGTTTTGGT; assay: 1H NMR titration (imino and aromatic protons); conditions: 150 mM NaCl; sodium phosphate pH 6.8, 25 °C; new imino signals, single conformation at R ≥ 1.0
[12] = system: 22nt (DNA, i motif) CCCTAACCCTAACCCTAACCCT; assay: CD melting, 287 nm; conditions: Na+ (0.2 M CH3COONa); acetate pH 5; 2 µM DNA, 8 µM compound
[13] = system: nmyc01 (DNA, i motif) ACCCCCTGCATCTGCATGCCCCCTCCCACCCCCT; assay: CD melting, 287 nm; conditions: Na+ (0.2 M CH3COONa); acetate pH 5; 2 µM DNA, 8 µM compound
[14] = system: 22nt (DNA, i motif) CCCTAACCCTAACCCTAACCCT; assay: fluorescence titration (alkaloid quenching); conditions: 5 mM KCl; acetate 10 mM pH 5; overall constant of the 1:4 DNA:ligand model, not per site; non-specific binding possible
[15] = system: nmyc01 (DNA, i motif) ACCCCCTGCATCTGCATGCCCCCTCCCACCCCCT; assay: fluorescence titration (alkaloid quenching); conditions: 5 mM KCl; acetate 10 mM pH 5; overall constant of the 1:4 DNA:ligand model, not per site; non-specific binding possible

ΔTm [1]: 1.7 °C | Log Ka [2]: 22.61 ± 0.08 | binding [3]: no | binding [4]: weak | binding [5]: no | ΔTm [6]: 5.2 °C | Log Ka [7]: 22.39 ± 0.03 | ΔTm [8]: −0.6 °C | binding [9]: yes | Log Ka [10]: 18.46 ± 0.05 | binding [11]: yes | ΔTm [12]: 0.7 °C | ΔTm [13]: −0.3 °C | Log Ka [14]: 17.64 ± 0.12 | Log Ka [15]: 18.21 ± 0.17
SMILES: COc1ccc2c(c1O)C[N+]1(C)CCc3cc4c(cc3C1C2)OCO4 (stereo not drawn)
